Test [1] deals with DAP i-motif (DNA, i motif) CCCCCGCCCCCGCCCCCGCCCCCGCCCCCG
Description: CD melting. As to conditions: K+ 100 mM, Li+ 10 mM; 10 mM lithium cacodylate pH 5.5; 10 μM DNA; 50 μM compound (5 eq.); destabilising.

For test [2], the system named is S100P i-motif (DNA, i motif) TCCCAACCCCACTGTCCCACCCT
Description: CD titration, Hill fit of ellipticity at 288 nm. The following applies: K+ 100 mM, Li+ 10 mM; 10 mM lithium cacodylate pH 5.5; 10 μM DNA; i-motif unfolding; Hill n 2.3 ± 0.2.

Test [3] deals with S100P G-quadruplex (DNA, G4) AGGGTGGGACAGTGGGGTTGGGA
The experiment in a line: UV-vis titration of ligand with DNA. As to conditions: K+ 100 mM, Li+ 10 mM; 10 mM lithium cacodylate; DNA at pH 7, ligand stock buffer pH 5.5; analysis method 1 (method 2: 1.5 ± 0.2).

Test [4] concerns hTelo i-motif (DNA, i motif) TAACCCTAACCCTAACCCTAACCC
Description: CD melting. The following applies: K+ 100 mM, Li+ 10 mM; 10 mM lithium cacodylate pH 5.5; 10 μM DNA; 50 μM compound (5 eq.); destabilising.

Test [5] concerns S100P i-motif (DNA, i motif) TCCCAACCCCACTGTCCCACCCT
The experiment in a line: UV-vis titration of ligand with DNA. As to conditions: K+ 100 mM, Li+ 10 mM; 10 mM lithium cacodylate pH 5.5; 5 μM ligand; analysis method 1 (method 2: 10.8 ± 2.9).

The test system of test [6] is ILPR i-motif (DNA, i motif) TGTCCCCACACCCCTGTCCCCACACCCCTGT
The experiment in a line: CD melting. As to conditions: K+ 100 mM, Li+ 10 mM; 10 mM lithium cacodylate pH 5.5; 10 μM DNA; 50 μM compound (5 eq.); destabilising.

The test system of test [7] is S100P i-motif (DNA, i motif) TCCCAACCCCACTGTCCCACCCT
Description: CD melting. The following applies: K+ 100 mM, Li+ 10 mM; 10 mM lithium cacodylate pH 5.5; 10 μM DNA; 50 μM compound (5 eq.); destabilising.

A word on the ΔTm: it is the change in melting temperature against a reference sample. One may read the Kd as the equilibrium constant for the complex coming apart.

`O=C1c2cc(-c3ccc(CN4CCCC4)cc3)c3c4c(cc(NCCN5CCCC5)c(c24)C(=O)N1CCCN1CCOCC1)C(=O)N(CCCN1CCOCC1)C3=O`: the ΔTm in test [1] was -21.6 ± 1.1 °C; in test [4], -16.6 ± 0.7 °C; in test [6], -18.8 ± 0.4 °C; in test [7], −20.7 ± 1.1 °C. Further, in test [2], the “[D]50%” value is 31 ± 4 µM. Further, the Kd in test [3] was found to be 2.0 ± 0.3 µM; in test [5] it was 11.7 ± 2.9 µM.
